Measured values taken from US8846570B2, “Herbicidal compositions comprising 4-amino-3-chloro-5-fluoro-6-(4-chloro-2-fluoro-3-methoxyphenyl)pyridine-2-carboxylic acid or a derivative thereof and microtubule inhibiting herbicides” (Dow AgroSciences LLC, priority 2012, dated 2014).
Where two headings read alike, the source gives them in different places.

How the values were obtained:
Assay in all cases: Postemergence foliar-applied, direct seeded rice, greenhouse: visual weed control
Format in all cases: in vivo
[1] = test system: Brachiaria platyphylla (Griseb.) Nash (BRAPP); conditions: 21 DAA
Source text: (§1) Seeds or nutlets of the desired test plant species were planted in a soil matrix prepared by mixing a loam or sandy loam soil (e.g., 28.6 percent silt, 18.8 percent clay, and 52.6 percent sand, with a pH of about 5.8 and an organic matter content of about 1.8 percent) and calcareous grit in an 80 to 20 ratio. The soil matrix was contained in plastic pots with a volume of 1 quart and a surface area of 83.6 cm^2. When required to ensure good germination and healthy plants, a fungicide treatment and/or other chemical or physical treatment was applied. The plants were grown for 8-22 days in a greenhouse with an approximate 14 h photoperiod which was maintained at about 29° C. during the day and 26° C. during the night. Nutrients (Peters Excel® 15-5-15 5-Ca 2-Mg and iron chelate) were applied in the irrigation solution as needed and water was added on a regular basis. Supplemental lighting was provided with overhead metal halide 1000-Watt lamps as necessary. The plants were employed for testing when they reached the first through fourth true leaf stage.
(§2) Treatments consisted of the acid or esters of 4-amino-3-chloro-5-fluoro-6-(4-chloro-2-fluoro-3-methoxy-phenyl)pyridine-2-carboxylic acid (Compound A), each formulated as an SC (suspension concentrate), and various herbicidal components alone and in combination. Forms of compound A were applied on an acid equivalent basis.
(§3) Treatment requirements were calculated based upon the rates being tested, the concentration of active ingredient or acid equivalent in the formulation, and a 12 mL application volume at a rate of 187 L/ha.
(§4) For treatments comprised of formulated compounds, measured amounts of compounds were placed individually in 25 mL glass vials and diluted in a volume of 1.25% (v/v) Agri-Dex® crop oil concentrated to obtain 12× stock solutions. […] Application solutions were prepared by adding an appropriate amount of each stock solution (e.g., 1 mL) and diluted to the appropriate final concentrations with the addition of 10 mL of an aqueous mixture of 1.25% (v/v) crop oil concentrate so that the final spray solutions contained 1.25+/−0.05% (v/v) crop oil concentrate.
(§5) As required, additional water and/or 97:3 v/v acetone/DMSO was added to individual application solutions so that the final acetone and DMSO concentrations of the application solutions being compared were 8.1% and 0.25%, respectively.
(§6) All stock solutions and applications solutions were visually inspected for compound compatibility prior to application. Spray solutions were applied to the plant material with an overhead Mandel track sprayer equipped with a 8002E nozzles calibrated to deliver 187 L/ha over an application area of 0.503 m^2 at a spray height of 18 to 20 inches (46 to 50 cm) above average plant canopy height. Control plants were sprayed in the same manner with the solvent blank.
(§7) The treated plants and control plants were placed in a greenhouse as described above and watered by sub-irrigation to prevent wash-off of the test compounds. After approximately 3 weeks, the condition of the test plants as compared with that of the untreated plants was determined visually and scored on a scale of 0 to 100 percent where 0 corresponds to no injury or growth inhibition and 100 corresponds to complete kill.
(§8) Colby's equation was used to determine the herbicidal effects expected from the mixtures (Colby, S. R. 1967. Calculation of the synergistic and antagonistic response of herbicide combinations. Weeds 15:20-22.).
(§9) The following equation was used to calculate the expected activity of mixtures containing two active ingredients, A and B: Expected=A+B−(A×B/100)

[2] = test system: Digitaria sanguinalis (L.) Scop. (DIGSA); conditions: 19 DAA
Source text: as §1, §2, §3, §4, §5, §6, §7, §8, §9

[3] = test system: Echinochloa colona (L.) Link (ECHCO)
Source text: as §1, §2, §3, §4, §5, §6, §7, §8, §9

[4] = test system: Echinochloa crusgalli (L.) Beauv. (ECHCG)
Experimental: as §1, with “When required to ensure good germination and healthy plants, a fungicide treatment and/or other chemical or physical treatment was applied.” left out
(§10) Forms of compound A were applied on an acid equivalent basis.
as §4, §5, §6, §7, §8, §9

[5] = test system: Ipomoea hederacea Jacq. (IPOHE); conditions: post-emergence, read-out: Visual Weed Control (%) Obs
Experimental: as §1, with “When required to ensure good germination and healthy plants, a fungicide treatment and/or other chemical or physical treatment was applied.” left out
as §10, §4, §5, §6, §7, §8, §9

COc1c(Cl)ccc(-c2nc(C(=O)O)c(Cl)c(N)c2F)c1F [Compound A Acid, 4-amino-3-chloro-6-(4-chloro-2-fluoro-3-methoxyphenyl)-5-fluoropyridine-2-carboxylic acid]
Visual Weed Control (%) Obs ([1]; 8.75 g ae/ha): 60%
Visual Weed Control (%) Obs ([2]; 4.38 g ae/ha): 30%
Visual Weed Control (%) Obs ([3]; 21 DAA, 4.38 g ae/ha): 60%
Visual Weed Control (%) Obs ([3]; 21 DAA, 8.75 g ae/ha): 90%
Visual Weed Control (%) Obs ([4]; 19 DAA, 4.38 g ae/ha): 60%
pest or weed control at 4.38 g/ha ([5]; 456 h, 19 DAA, 4.38 g ae/ha): 0%
pest or weed control at 8.75 g/ha ([5]; 456 h, 19 DAA, 8.75 g ae/ha): 10%
pest or weed control at 35 g/ha ([5]; 504 h, 21 DAA, 35 g ae/ha): 45%
pest or weed control at 8 g/ha ([5]; 528 h, 22 DAA, 8 g ae/ha): 25%
pest or weed control at 16 g/ha ([5]; 528 h, 22 DAA, 16 g ae/ha): 35%
pest or weed control at 32 g/ha ([5]; 528 h, 22 DAA, 32 g ae/ha): 40%

COc1c(Cl)ccc(-c2nc(C(=O)OCc3ccccc3)c(Cl)c(N)c2F)c1F [Compound A Benzyl Ester, benzyl ester of 4-amino-3-chloro-5-fluoro-6-(4-chloro-2-fluoro-3-methoxy-phenyl)pyridine-2-carboxylic acid]
Visual Weed Control (%) Obs ([1]; 4.38 g ae/ha): 70%
Visual Weed Control (%) Obs ([2]; 4.38 g ae/ha): 35%
Visual Weed Control (%) Obs ([2]; 8.75 g ae/ha): 50%
Visual Weed Control (%) Obs ([3]; 19 DAA, 4.38 g ae/ha): 65%
Visual Weed Control (%) Obs ([3]; 19 DAA, 8.75 g ae/ha): 90%
Visual Weed Control (%) Obs ([4]; 19 DAA, 4.38 g ae/ha): 55%
Visual Weed Control (%) Obs ([4]; 19 DAA, 8.75 g ae/ha): 85%
Visual Weed Control (%) Obs ([4]; 20 DAA, 4.38 g ae/ha): 40%
Visual Weed Control (%) Obs ([4]; 20 DAA, 8.75 g ae/ha): 70%
pest or weed control at 4.38 g/ha ([5]; 456 h): 0%
pest or weed control at 8.75 g/ha ([5]; 456 h): 0%
pest or weed control at 8 g/ha ([5]; 480 h): 20%
pest or weed control at 8.75 g/ha ([5]; 480 h): 10%
pest or weed control at 16 g/ha ([5]; 480 h): 40%
pest or weed control at 17.5 g/ha ([5]; 480 h): 25%
pest or weed control at 4.38 g/ha ([5]; 504 h): 10%
pest or weed control at 8.75 g/ha ([5]; 504 h): 10%
pest or weed control at 17.5 g/ha ([5]; 504 h): 25%
pest or weed control at 8 g/ha ([5]; 528 h): 10%
pest or weed control at 16 g/ha ([5]; 528 h): 10%
pest or weed control at 32 g/ha ([5]; 528 h): 35%

CSC(=O)c1c(C(F)F)nc(C(F)(F)F)c(C(=O)SC)c1CC(C)C [Dithiopyr, S,S′-dimethyl-2-(difluoromethyl)-4-(2-methylpropyl)-6-(trifluoromethyl)-3,5-pyridinedicarbothioate]
Visual Weed Control (%) Obs ([1]; 35 g ai/ha): 0%
Visual Weed Control (%) Obs ([1]; 70 g ai/ha): 0%
Visual Weed Control (%) Obs ([1]; 140 g ai/ha): 0%
Visual Weed Control (%) Obs ([3]; 21 DAA, 35 g ai/ha): 0%
Visual Weed Control (%) Obs ([3]; 21 DAA, 70 g ai/ha): 0%
Visual Weed Control (%) Obs ([3]; 21 DAA, 140 g ai/ha): 0%
pest or weed control at 35 g/ha ([5]; 504 h, 21 DAA, 35 g ai/ha): 10%

CCC(CC)Nc1c([N+](=O)[O-])cc(C)c(C)c1[N+](=O)[O-] [Pendimethalin, N-(1-ethylpropyl)-3,4-dimethyl-2,6-dinitrobenzenamine, reference compound]
Visual Weed Control (%) Obs ([2]; 140 g ai/ha): 0%
Visual Weed Control (%) Obs ([2]; 280 g ai/ha): 0%
Visual Weed Control (%) Obs ([3]; 19 DAA, 140 g ai/ha): 0%
Visual Weed Control (%) Obs ([3]; 19 DAA, 280 g ai/ha): 0%
Visual Weed Control (%) Obs ([3]; 19 DAA, 560 g ai/ha): 0%
Visual Weed Control (%) Obs ([4]; 19 DAA, 140 g ai/ha): 0%
Visual Weed Control (%) Obs ([4]; 19 DAA, 280 g ai/ha): 0%
Visual Weed Control (%) Obs ([4]; 19 DAA, 560 g ai/ha): 10%
Visual Weed Control (%) Obs ([4]; 21 DAA, 1120 g ai/ha): 18%
pest or weed control at 140 g/ha ([5]; 456 h, 19 DAA, 140 g ai/ha): 0%
pest or weed control at 280 g/ha ([5]; 456 h, 19 DAA, 280 g ai/ha): 0%
pest or weed control at 560 g/ha ([5]; 456 h, 19 DAA, 560 g ai/ha): 0%
pest or weed control at 1120 g/ha ([5]; 504 h, 21 DAA, 1120 g ai/ha): 13%
